From article PMC9727064, “Performance assessment and economic analysis of a human Liver-Chip for predictive toxicology” (Communications Medicine, 2022)
Like-named read-outs stand apart in the source and are kept apart here.

Columns and labels:
[1] = tested on: human Liver-Chip (primary human hepatocytes); assay: Liver-Chip alanine transaminase (ALT) release in top channel effluent (ELISA); assay type: cell-based
Source text: (§1) Cycles 1 to 4 tested 6–8 concentrations in duplicate for each of 10–13 drugs. To determine which sampling strategy was optimal for cycles 1 to 4 (16 doses × 1 replicate, 8 × 2, 5 × 3, or 4 × 4), we generated three different “dose-response” synthetic datasets, each distorted by different noise levels (low, medium, or high). For each of these datasets, we performed curve-fitting analyses and calculated the Root Mean Square Error between the “true” and estimated IC50 parameter. […] Some drugs were also repeated across cycles (on different donors or at different concentrations) to ensure experimental robustness. However, to replicate a more typical study design likely to be carried out by scientists in the pharmaceutical industry, we created cycle 5 with 6 drugs, where each was tested in 4 concentrations in triplicate. For each cycle, chips were dosed with drug over 8 days (referred to as Day 0 through Day 7).
(§2) The drug dosing concentrations were determined from the unbound human Cmax of each drug. First, the expected fraction of drug unbound in media with 2% FBS was extrapolated from plasma binding data for each drug. Dosing concentrations were then back calculated such that the unbound fraction in media would reflect relevant multiples of unbound human Cmax (Supplementary Data 1).
(§3) On the first dosing day (Day 0), all chips were imaged using the ECHO microscope. Five hundred microliters of effluent was collected from all four reservoirs of the pod and placed in a labeled 96-well plate. After collection, all the remaining media was carefully aspirated before dosing with 3.8 mL of corresponding dosing solution. Dosing occurred on study days 0, 2, and 4 for chips flowing at 30 µL/h, and on days 0, 1, 2, 3, 4, 5, and 6 for chips flowing at 150 µL/h. Effluent collection occurred on days 1, 3, and 7.
(§4) Top channel outlet effluents were analyzed to quantify albumin and alanine transaminase (ALT) levels on days 1, 3, and 7 using sandwich ELISA kits (Abcam, Albumin ab179887, ALT ab234578) according to vendor-provided protocols. Frozen (−80 °C) effluent samples were thawed overnight at 4 °C prior to assay. The Hamilton Vantage liquid handling platform was used to manage effluent dilutions (1:500 for albumin, neat for ALT), preparation of standard curves, and addition of antibody cocktail. Absorbance at 450 nm was measured using the SynergyNeo Microplate Reader (BioTek).

[2] = tested on: human Liver-Chip (primary human hepatocytes); assay: Liver-Chip albumin production in top channel effluent (ELISA); assay type: cell-based; conditions: concentration causing a 50% reduction in albumin production
Source text: as §1, §2, §3, §4
All statistical analyses were conducted in R[21] (version 4.1.2) and figures were produced using the R package ggplot2[22] (version 3.3.5). The dose-response analysis (Fig. 4) was carried out using the popular drc R package developed by Ritz et al.[23] using the generalized log-logistic dose-response model. The error bars in Figs. 3 and 4, correspond to the standard errors of the mean. The circles in Fig. 3 correspond to the samples used to calculate the corresponding statistics. The analysis of significance in Fig. 3 was performed using paired t-test across different days (same donor) and unpaired t-test across different donors (same day). In Fig. 3 the number of samples used were n = 3 for donor two, and n = 4 for donor three. For both donors, the number of the freshly thawed hepatocyte samples used to estimate the corresponding log2(Fold Change) were n = 4. Finally, the analysis of significance in Fig. 3 was performed using paired t-test.

[3] = tested on: human Liver-Chip (hepatocytes and non-parenchymal cells)
Procedure: At least four to six brightfield images were acquired per chip for morphology analysis. […] Brightfield images were acquired across three fields of view on days 1, 3, and 7 for each cycle. Cytotoxicity classification was performed while acquiring images for both NPCs and hepatocytes. Images were then scored zero to four by blinded individuals (n = 2) based on severity of agglomeration of cell debris for both channels. The scoring matrix and representative images have been included in the supplement (Supplementary Fig. 1).
Hepatocyte layer on Chips
Non-parenchymal cell layer on Chips
Supplementary Figure 1. (a) Representative brightfield images to depict the cellular morphology score in the top channel of the Liver-Chip which contains hepatocytes. A score of 0 represents no hepatotoxicity detected, which is defined by 95-100% healthy hepatocyte morphology, hexagonal shape containing binucleated cells, clear cell cytoplasm, distinctive cell junctions and less than 5% dead cells. A score of 1 […]
cells. A score of 2 represents mild hepatotoxicity with > 70% monolayer of hepatocytes visible, evidence that cells have begun to lose their distinct cell junctions, many cells contain a granulated cytoplasm but < 30% are dead cells. A score of 3 represents moderate hepatotoxicity with severe granulation of cytoplasm and most of the cells have lost their junctions. Approximately 50% of the cells are considered dead. A score of 4 represents severe hepatotoxicity with agglomeration of cell debris and > 50% of the cells are considered dead. The pores on the membrane become visible as there is no longer a cellular monolayer. (b) Representative brightfield images to depict the cellular morphology score in the bottom channel of the Liver-Chip which contains non-parenchymal cells. A score of 0 represents no cytotoxicity detected, with an intact monolayer and <1% of the cells are dead. A score of 1 represents at least 90% of the monolayer is present and there are <10% dead cells. A score of 2 represents mild cytotoxicity with > 80% of the monolayer present and < 20% are dead cells. A score of 3 represents moderate cytotoxicity with > 50% of the monolayer present and < 50% are dead cells. A score of 4 represents severe cytotoxicity with > 50% of the cells are considered dead. (bar, 50 μm). […]

[4] = human, total plasma Cmax, cited from earlier work
[5] = plasma; ref Scott, L. J. (69); cited from earlier work
[6] = lowest concentration causing an increase in ALT protein
[7] = lowest concentration causing an increase in cellular morphology score, donor 1
[8] = lowest concentration causing an increase in cellular morphology score, donor 2
[9] = lowest concentration causing an increase in cellular morphology score, donor 3
[10] = expanded drug list, lowest concentration causing an increase in ALT release

Row | Compound | ALT Donor 1 [1, 6] | ALT Donor 2 [1, 6] | ALT Donor 3 [1, 6] | Albumin IC50 Donor 1 [2] | Albumin IC50 Donor 2 [2] | Albumin IC50 Donor 3 [2] | Morphology Donor 1 [3, 7] | Morphology Donor 1 ([3]; human) | Morphology Donor 2 ([3]; human) | further results
1 | COC(c1ccccc1)(c1ccccc1)[C@H](Oc1nc(C)cc(C)n1)C(=O)O [Ambrisentan] | >300 multiples of the unbound human Cmax | >1000 multiples of the unbound human Cmax | >300 multiples of the unbound human Cmax | >300 multiples of the unbound human Cmax | >1000 multiples of the unbound human Cmax | >300 multiples of the unbound human Cmax | >300 multiples of the unbound human Cmax |  |  | Morphology Donor 2 [3, 8]: >1000 multiples of the unbound human Cmax; Morphology Donor 3 [3, 9]: >300 multiples of the unbound human Cmax; Human Cmax Total ([4]; ref Proctor, W.R. et al. (29)): 0.79 µM
2 | CC(C(=O)O)c1ccc2oc(-c3ccc(Cl)cc3)nc2c1 (stereo not drawn) [Benoxaprofen] |  |  |  |  |  |  |  | < 0.1 unbound human Cmax multiplier | 100 unbound human Cmax multiplier | ALT Donor 1 [1, 10]: > 100 unbound human Cmax multiplier; ALT Donor 2 [1, 10]: 100 unbound human Cmax multiplier; Expected Fraction Unbound in Plasma [5]: 0.01; Human Cmax Total ([4]; ref Chatsiricharoenkul, S., Niyomnaitham, Pongnarin, P., Sathirakul, K. & Kongpatanakul, S. (66)): 149.1 µM
3 | CCN(CC)C(=O)/C(C#N)=C/c1cc(O)c(O)c([N+](=O)[O-])c1 [Entacapone] | >300 multiples of the unbound human Cmax |  |  | >300 multiples of the unbound human Cmax |  |  | >300 multiples of the unbound human Cmax |  |  | Human Cmax Total ([4]; ref Lombardo, F., Berellini, G. & Obach, R. S. (70)): 3.3 µM
4 | O=c1[nH]c(=O)n([C@@H]2O[C@H](CO)[C@@H](O)[C@@H]2F)cc1I [Fialuridine] | >300 multiples of the unbound human Cmax | >300 multiples of the unbound human Cmax |  | <0.1 multiples of the unbound human Cmax | <1 multiples of the unbound human Cmax |  |  | >300 multiples of the unbound human Cmax | >300 multiples of the unbound human Cmax | Human Cmax Total ([4]; ref Vorrink, S. U., Zhou, Y., Ingelman- Sundberg, M. & Lauschke, V.M. (30)): 0.64 µM
5 | C[C@H]1COc2c(N3CCN(C)CC3)c(F)cc3c(=O)c(C(=O)O)cn1c23 [Levofloxacin] | >15 multiples of the unbound human Cmax | >45 multiples of the unbound human Cmax | >45 multiples of the unbound human Cmax | >15 multiples of the unbound human Cmax | >45 multiples of the unbound human Cmax | >45 multiples of the unbound human Cmax |  | >15 multiples of the unbound human Cmax | >45 multiples of the unbound human Cmax | ALT_levels ([1]; Concentration_Day3 = 45, one line per replicate chip): 0; Morphology Donor 3 ([3]; human): >45 multiples of the unbound human Cmax; Human Cmax Total ([4]; ref Xu, J. J. et al. (36)): 15.8 µM
6 | CCc1nn(CCCN2CCN(c3cccc(Cl)c3)CC2)c(=O)n1CCOc1ccccc1 [Nefazodone] | 300 multiples of the unbound human Cmax |  |  | 140 multiples of the unbound human Cmax |  |  |  | 300 multiples of the unbound human Cmax |  | 
7 | CCc1ccc(CCOc2ccc(CC3SC(=O)NC3=O)cc2)nc1 (stereo not drawn) [Pioglitazone] | >300 multiples of the unbound human Cmax | >300 multiples of the unbound human Cmax |  | 277 multiples of the unbound human Cmax | >300 multiples of the unbound human Cmax |  |  | >300 multiples of the unbound human Cmax | >300 multiples of the unbound human Cmax | Human Cmax Total ([4]; ref Xu, J. J. et al. (36)): 3 µM
8 | Cc1cc2c(cc1CC(=O)c1sccc1S(=O)(=O)Nc1onc(C)c1Cl)OCO2 [Sitaxsentan] | 300 multiples of the unbound human Cmax | 300 multiples of the unbound human Cmax | 100 multiples of the unbound human Cmax | 4.4 multiples of the unbound human Cmax | 164 multiples of the unbound human Cmax | >100 multiples of the unbound human Cmax | 100 multiples of the unbound human Cmax |  |  | Morphology Donor 2 [3, 8]: 100 multiples of the unbound human Cmax; Morphology Donor 3 [3, 9]: 100 multiples of the unbound human Cmax
9 | N[C@@H]1[C@H]2CN(c3nc4c(cc3F)c(=O)c(C(=O)O)cn4-c3ccc(F)cc3F)C[C@@H]12 [Trovafloxacin] | 100 multiples of the unbound human Cmax | 100 multiples of the unbound human Cmax | 30 multiples of the unbound human Cmax | 82 multiples of the unbound human Cmax | 78 multiples of the unbound human Cmax | 31 multiples of the unbound human Cmax |  | 100 multiples of the unbound human Cmax | 100 multiples of the unbound human Cmax | Morphology Donor 3 ([3]; human): 30 multiples of the unbound human Cmax
